Measurements taken from paper PMC12203577, “Molecular Basis of Pseudomonas syringae pv actinidiae Levansucrase Inhibition by a Multivalent Iminosugar” (Journal of Agricultural and Food Chemistry, 2025).
Where “and” joins values, the source holds several entries; their conditions need not be identical. Equal values may be shown once.

Assays:
Lscβ = molecular target: T1, Lscβ (Pseudomonas syringae pv. actinidiae, UniProt A0A2V0R8Q9); assay: Sucrose hydrolysis assay on recombinant Lscβ (DNS glucose quantification); assay type: biochemical, Pseudomonas syringae pv actinidiae biovar 3 (Psa3); details: for % Residual activity (sucrose hydrolysis), Lscβ: 100 μM iminosugar; for % Residual activity (sucrose hydrolysis), Lscβ / IC50: 60 mM sucrose
T1 construct: 6His-tag (TEV-cleavable) (cleaved yes); made in house; host or cells: E. coli BL21 (DE3)
Method: (§1) Lscβ and Lscγ were produced and purified as reported by Luti et al. 2021. Briefly, the lscβ and lscγ genes of Psa3 KL103 were cloned in the pNIC28-Bsa4 plasmid and used to transform E. coli BL21 (DE3) cells (New England Biolabs). At A 600 (absorbance at 600 nm) = 0.6, protein expression was induced by 0.4 mM IPTG for 20 h at 18 °C. Then, cells were harvested by […], and recombinant proteins were purified using IMAC Sepharose High Performance (Ge Healthcare) charged with Ni^2+. Subsequently, the proteins were subjected to TEV (Tobacco Etch Virus protease) treatment to remove the 6His-tag and further purified by gel chromatography on a HiLoad 16/600 Superdex 200 pg column driven by an Akta Pure 25 L system (GE Healthcare, Waukesha, WI, USA). Pure proteins were stored in 10 mM Tris/HCl at pH 7.0 at −80 °C until further analysis.
The enzymatic assays to detect the inhibitory potential of the compounds on sucrose hydrolysis activity of Lscβ and Lscγ were performed according to Luti et al. 2021 in a total volume of 100 μL, using a Bis/Tris buffer (50 mM, pH 7.0). […] After the reactions were stopped, glucose concentration was measured using the DNS (3,5-dinitrosalicylic acid) method to determine spectrophotometrically the inhibitory activity of each compound. The enzymatic activity, measured as μmol/min·mL, was expressed as %residual enzymatic activity=[Ai/Ac]×100 , where A i is the absorbance of the samples with the inhibitors and A c is the absorbance of the control.
(§2) The inhibition levels of compounds 1–4 were analyzed by measuring their IC50. To quantify the IC50 values, we set up different enzymatic reactions at various concentrations of the inhibitor, and we monitored the effects of such concentrations on the enzymatic activity. The assay system was prepared as described above using a Bis/Tris buffer at pH 7.0 and 60 mM sucrose as the substrate. The inhibitor concentrations tested for both enzymes were 0, 0.01, 0.1, 0.5, 1, 10, 25, 50, 100, 200, 400, and 800 μM. Glucose released by the two enzymes was quantified using the DNS method and a microplate spectrophotometer. IC50 was defined as the concentration of a compound causing 50% inhibition, and it was calculated by drawing a dose–response graph for each compound using GraphPad Prism version 8.0 for Windows, GraphPad Software, San Diego, California, USA (www.graphpad.com). The response was expressed on the Y-axis as a percentage of enzymatic activity, and the […].
(§3) The inhibitory mechanism of TPIS (3) was determined by studying the dependence between the main kinetic parameters (K Mapp and V maxapp) and the inhibitor concentrations. Data obtained were fitted using the Michaelis–Menten equation and a nonlinear fitting software. Then, data were analyzed using the double reciprocal plot (Lineweaver–Burk method). Secondary plots were used to calculate the K i values by using GraphPad Prism version 8.0. In detail, the inhibitory mechanism of TPIS (3) was analyzed using 0, 25, 60, and 100 μM inhibitors for Lscβ and 0, 10, 25, and 100 μM for Lscγ. For each concentration, we set the sucrose concentration to 0, 10, 30, 50, 100, 200, 400, and 600 mM, and reactions were performed as previously described using an enzyme concentration of 0.02 μg/μL. After the reactions were stopped, glucose from enzymatic hydrolysis was quantified using the DNS method.

Lscγ [1] = molecular target: T2, Lscγ (Pseudomonas syringae pv. actinidiae, UniProt A0A2V0R8Y2); assay: Sucrose hydrolysis assay on recombinant Lscγ (DNS glucose quantification); assay type: biochemical, Pseudomonas syringae pv actinidiae biovar 3 (Psa3); details: for % Residual activity (sucrose hydrolysis), Lscγ: 100 μM iminosugar; for % Residual activity (sucrose hydrolysis), Lscγ / IC50: 60 mM sucrose
T2 construct: 6His-tag (TEV-cleavable) (cleaved yes); made in house; host or cells: E. coli BL21 (DE3)
Method: as §1
The enzymatic assays to detect the inhibitory potential of the compounds on sucrose hydrolysis activity of Lscβ and Lscγ were performed according to Luti et al. 2021 in a total volume of 100 μL, using a Bis/Tris buffer (50 mM, pH 7.0). The experiments were performed at an enzyme concentration of 0.03 μg/μL with 60 mM sucrose and a final inhibitor concentration (compounds 1–4) of 100 μM, on a 10-min time frame. After the reactions were stopped, glucose concentration was measured using the DNS (3,5-dinitrosalicylic acid) method to determine spectrophotometrically the inhibitory activity of each compound. The enzymatic activity, measured as μmol/min·mL, was expressed as %residual enzymatic activity=[Ai/Ac]×100 , where A i is the absorbance of the samples with the inhibitors and A c is the absorbance of the control.
as §2, §3

Lscγ [2] = molecular target: T2, Lscγ; assay: Levan synthesis turbidity assay with Lscγ; assay type: biochemical, Pseudomonas syringae pv actinidiae biovar 3 (Psa3)
Method: (§4) Inhibition of levan synthesis was monitored using a turbidity assay on a microtiter plate as reported by Luti et al. 2021 with slight modifications. The reaction was performed at 37 °C in 200 μL of 50 mM sodium acetate buffer at pH 5.0 containing 60 mM sucrose and 10 μg of purified Lscγ protein per mL of reaction mixture. The turbidity of the samples at 400 nm was recorded every 5 min using a BioTek Synergy H1 Hybrid Multimode Reader. The percent inhibition was determined at 60 min of incubation, at the maximum absorbance, and was determined as defined in the previous section, Sucrose Hydrolysis Assay. For the IC50 determinations, we used a 0–200 μM TPIS (3) concentration and defined the activity as previously reported. For macroscopic evaluation of levan synthesis inhibition, a 10 μL drop of 1 μg/μL Lscγ was applied on an agar sucrose (5% w/v) plate alone or with 100 μM TPIS (3). A picture was taken after 24 h at 4 °C.

Lscγ [3] = molecular target: T2, Lscγ; assay: Macroscopic evaluation of levan synthesis by Lscγ on agar sucrose plate; assay type: biochemical, Pseudomonas syringae pv actinidiae biovar 3 (Psa3); details: 100 μM, 10 μL drop of 1 μg/μL Lscγ, 24 h
Method: as §4

KL103 whole cell lysate [4] = assay: Sucrose hydrolysis by whole cell lysate, KL103; assay type: biochemical, P. syringae pv actinidiae biovar 3; details: 100 μM, 60 mM sucrose
Method: (§5) The strains CFBP8414 (P. syringae pv actinidiae biovar 5) and CFBP1390 (P. syringae pv phaseolicola) were purchased from the CIRM-CFBP French Collection for Plant Associated Bacteria, while KL103 (P. syringae pv actinidiae biovar 3) was isolated in Tuscany in 2015, as reported by Campigli et al., 2023.
(§6) Bacterial cells were grown in 50 mL of Nutrient Sucrose (5% w/v) for 48 h at 180 rpm at 27 °C. Cell suspensions were diluted to an A 600 of 1 (10^7 cfu/mL) in water, and 1 mL aliquots were centrifuged for 5 min at 15,000 × g at 4 °C. The supernatant was discarded, while the pellet was stored at −20 °C for further analysis.
(§7) To extract total protein, cell pellets were resuspended in 1 mL of ice-cold RIPA Buffer with Protease Inhibitors Cocktail, and cells were lysed by sonication using a Fisher Scientific Model 120 Sonic Dismembrator. The sonication step was carried out on ice with three pulses of 15 s at 30% amplitude, each followed by 30 s cooldown. Sonicated samples were cleared by centrifugation for 15 min at 15,000 × g at 4 °C. The pellet was discarded, while the supernatant was collected and stored at −20 °C for further analysis. The hydrolysis enzymatic reaction was carried out as previously described with 60 mM sucrose and 7 μL of cell lysate for 1.5 h. After the samples were boiled, glucose was quantified using the DNS method. […]

[5] = test system: CFBP8414 whole cell lysate; assay: Sucrose hydrolysis by whole cell lysate, CFBP8414; assay type: biochemical, P. syringae pv actinidiae biovar 5; details: 100 μM, 60 mM sucrose
Method: as §5, §6, §7

[6] = test system: CFBP1390 whole cell lysate; assay: Sucrose hydrolysis by whole cell lysate, CFBP1390; assay type: biochemical, P. syringae pv phaseolicola; details: 100 μM, 60 mM sucrose
Method: as §5, §6, §7

KL103 whole cell lysate [7] = assay: Macroscopic levan synthesis by lysate on agar sucrose plate, KL103; assay type: biochemical, P. syringae pv actinidiae biovar 3; details: 100 μM, 72 h
Method: (§8) To extract total protein, cell pellets were resuspended in 1 mL of ice-cold RIPA Buffer with Protease Inhibitors Cocktail, and cells were lysed by sonication using a Fisher Scientific Model 120 Sonic Dismembrator. The sonication step was carried out on ice with three pulses of 15 s at 30% amplitude, each followed by 30 s cooldown. Sonicated samples were cleared by centrifugation for 15 min at 15,000 × g at 4 °C. The pellet was discarded, while the supernatant was collected and stored at −20 °C for further analysis. The hydrolysis enzymatic reaction was carried out as previously described with 60 mM sucrose and 7 μL of cell lysate for 1.5 h. After the samples were boiled, glucose was quantified using the DNS method. For macroscopic evaluation of levan synthesis inhibition, a 10 μL drop of lysates was applied on an agar sucrose (5% w/v) plate alone or with 100 μM TPIS (3). A picture was taken after 72 h at 4 °C.

[8] = test system: CFBP8414 whole cell lysate; assay: Macroscopic levan synthesis by lysate on agar sucrose plate, CFBP8414; assay type: biochemical, P. syringae pv actinidiae biovar 5; details: 100 μM, 72 h
Method: as §8

[9] = test system: CFBP1390 whole cell lysate; assay: Macroscopic levan synthesis by lysate on agar sucrose plate, CFBP1390; assay type: biochemical, P. syringae pv phaseolicola; details: 100 μM, 72 h
Method: as §8

Jack bean α-mannosidase = details: cited from earlier work

T1 sequence (A0A2V0R8Q9 whole entry): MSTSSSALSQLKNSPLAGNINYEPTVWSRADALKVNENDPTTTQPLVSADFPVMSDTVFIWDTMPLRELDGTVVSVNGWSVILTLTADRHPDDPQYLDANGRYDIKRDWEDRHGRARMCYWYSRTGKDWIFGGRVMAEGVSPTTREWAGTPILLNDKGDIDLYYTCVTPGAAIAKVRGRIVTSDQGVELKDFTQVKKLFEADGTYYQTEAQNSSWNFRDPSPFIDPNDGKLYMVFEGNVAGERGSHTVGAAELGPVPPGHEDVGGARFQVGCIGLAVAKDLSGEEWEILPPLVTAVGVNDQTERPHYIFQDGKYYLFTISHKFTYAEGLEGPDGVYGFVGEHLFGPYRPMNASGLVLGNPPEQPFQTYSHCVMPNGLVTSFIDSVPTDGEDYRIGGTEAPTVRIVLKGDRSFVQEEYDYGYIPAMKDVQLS
T2 sequence (A0A2V0R8Y2 whole entry): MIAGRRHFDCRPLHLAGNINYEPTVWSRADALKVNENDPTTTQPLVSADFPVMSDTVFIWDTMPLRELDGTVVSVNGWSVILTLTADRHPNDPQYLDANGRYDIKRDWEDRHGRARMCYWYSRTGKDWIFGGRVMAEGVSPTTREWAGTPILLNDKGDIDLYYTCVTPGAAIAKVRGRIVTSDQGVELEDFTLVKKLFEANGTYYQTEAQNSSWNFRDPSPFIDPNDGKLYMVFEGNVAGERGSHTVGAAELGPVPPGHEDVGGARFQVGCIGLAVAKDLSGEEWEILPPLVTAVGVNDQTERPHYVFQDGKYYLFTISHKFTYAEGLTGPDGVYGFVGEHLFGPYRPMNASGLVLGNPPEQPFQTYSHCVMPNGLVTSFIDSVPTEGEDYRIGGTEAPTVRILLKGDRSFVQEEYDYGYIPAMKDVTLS

## OCCc1cn(CCCCCCN2C[C@@H](O)[C@H](O)[C@H]2CO)nn1 [Compound 4]
Lscβ; pH 7.0
  % Residual activity (sucrose hydrolysis), Lscβ: 93 ± 12%
  IC50: > 1000 µM
Lscβ; pH 7, read-out: inhibitory activity on sucrose hydrolysis, Lscβ
  inhibition at 100 µM: ~7%
Lscβ; read-out: residual activity at 1 mM, Lscβ
  remaining activity at 1000 µM: 40%
Lscγ [1]; pH 7.0
  % Residual activity (sucrose hydrolysis), Lscγ: 126 ± 50%
  IC50: > 1000 µM
Lscγ [1]; pH 7.0, listed as PIS (4)
  % Residual activity (sucrose hydrolysis), Lscγ: does not inhibit

## OC[C@@H]1[C@@H](O)[C@H](O)CN1CCCCCCn1cc(COCC(COCc2cn(CCCCCCN3C[C@@H](O)[C@H](O)[C@H]3CO)nn2)(COCc2cn(CCCCCCN3C[C@@H](O)[C@H](O)[C@H]3CO)nn2)COCc2cn(CCCCCCN3C[C@@H](O)[C@H](O)[C@H]3CO)nn2)nn1 [Compound 3]
Lscβ; pH 7.0
  % Residual activity (sucrose hydrolysis), Lscβ: 49 ± 5%
  IC50: 22 µM and 22.4 µM
Lscβ; KMapp increases, Vmaxapp does not vary, versus sucrose
  inhibition mechanism, Lscβ: competitive inhibitor
Lscβ; secondary plot, pH 7.0, read-out: K i, sucrose hydrolysis, Lscβ
  Ki: 29 µM
Lscβ; sucrose hydrolysis
  rp/n (rp divided by valency), Lscβ: > 11
Lscγ [1]; pH 7.0
  % Residual activity (sucrose hydrolysis), Lscγ: 36 ± 5%
  IC50: 60.9 µM
Lscγ [1]; KMapp increases, Vmaxapp not affected, versus sucrose
  inhibition mechanism, Lscγ: competitive inhibitor
Lscγ [1]; secondary plot, pH 7.0, read-out: K i, sucrose hydrolysis, Lscγ
  Ki: 20 µM
Lscγ [2]; 100 μM, pH 5.0, 60 min
  residual polymerization activity (levan production), Lscγ: 46 ± 3%
Lscγ [2]; pH 5.0, 60 min of incubation, estimated, read-out: IC50, polymerization activity of Lscγ
  IC50: 37 µM
Lscγ [3]
  macroscopic levan production by Lscγ on agar sucrose plate: limits levan production
KL103 whole cell lysate [4]
  residual sucrose hydrolysis activity, KL103 lysate: 54 ± 7%
[5]
  residual sucrose hydrolysis activity, CFBP8414 lysate: 44 ± 11%
[6]
  residual sucrose hydrolysis activity, CFBP1390 lysate: 55 ± 3%
KL103 whole cell lysate [7]
  macroscopic levan synthesis, KL103 lysate: able to limit levan synthesis
[8]
  macroscopic levan synthesis, CFBP8414 lysate: able to limit levan synthesis
[9]
  macroscopic levan synthesis, CFBP1390 lysate: able to limit levan synthesis
Jack bean α-mannosidase; already demonstrated in earlier work
  IC50: 34 µM
Jack bean α-mannosidase; relative potency with respect to monovalent counterpart per active unit, earlier work
  rp/n, Jack bean α-mannosidase: 10

## OC[C@H]1NC[C@@H](O)[C@@H]1O [Compound 1, 1,4-dideoxy-1,4-imino-D-arabinitol]
Lscβ; pH 7.0
  % Residual activity (sucrose hydrolysis), Lscβ: 103 ± 6%
  IC50: > 100 µM
Lscβ; pH 7.0, listed as DAB-1 (1)
  % Residual activity (sucrose hydrolysis), Lscβ: do not affect Lscβ activity at all
Lscγ [1]; pH 7.0
  % Residual activity (sucrose hydrolysis), Lscγ: 101 ± 12%
  IC50: > 100 µM

## OC[C@H]1O[C@@](CO)(O[C@H]2O[C@H](CO)[C@@H](O)[C@H](O)[C@H]2O)[C@@H](O)[C@@H]1O [Sucrose]
Lscβ; substrate, pH 7.0
  KMapp of Lscβ for sucrose: KMapp (mM) 57 ± 11
Lscγ [1]; substrate, pH 7.0
  KMapp of Lscγ for sucrose: KMapp(mM) 59 ± 12

## OC[C@@H]1[C@@H](O)[C@H](O)CN1CCO[C@@H]1O[C@H](CO)[C@@H](O)[C@H](O)[C@H]1O [Compound 2]
Lscβ; pH 7.0
  IC50: > 100 µM
Lscγ [1]; pH 7.0
  % Residual activity (sucrose hydrolysis), Lscγ: 85 ± 8%
  IC50: > 100 µM
